How the values were obtained:
C57BL/6J mice = conditions: cited from earlier work
[1] = system: participants with alcohol dependence; conditions: single high-dose LSD session vs control, six trials; cited from earlier work
dopamine receptors = conditions: cited from earlier work
rodents = conditions: cited from earlier work
5HT1A receptors = biological target: T1, 5HT1A receptors (Homo sapiens, UniProt P08908); conditions: cited from earlier work
T1 sequence (P08908 1-422): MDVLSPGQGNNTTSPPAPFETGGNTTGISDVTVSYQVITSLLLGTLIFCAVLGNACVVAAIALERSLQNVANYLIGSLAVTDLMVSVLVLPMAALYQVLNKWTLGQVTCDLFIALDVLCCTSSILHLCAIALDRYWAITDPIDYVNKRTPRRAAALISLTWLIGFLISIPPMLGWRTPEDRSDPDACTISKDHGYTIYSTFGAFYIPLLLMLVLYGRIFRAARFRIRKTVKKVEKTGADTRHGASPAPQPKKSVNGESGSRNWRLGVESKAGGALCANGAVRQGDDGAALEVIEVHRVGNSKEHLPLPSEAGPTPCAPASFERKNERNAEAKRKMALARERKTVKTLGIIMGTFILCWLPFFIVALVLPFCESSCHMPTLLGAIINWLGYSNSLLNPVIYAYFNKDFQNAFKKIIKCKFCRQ

male fosTRAP2×Ai14 mice = assay: Two-bottle choice (water vs 20% ethanol) drinking after ethanol exposure; type: in vivo; conditions: for ethanol preference, within-group mean difference week 1 vs. week 3: follow-up week 1 (after dose 1) vs week 3 (after dose 2); for ethanol consumption, mean difference Saline vs. treatment: planned contrast across 4 follow-up weeks, LSD 50 ug/kg or BOL-148 3.0 mg/kg intraperitoneal; for effect of treatment on alcohol preference (summary) / additive effect of a second dose on alcohol preference: summary in words; for additive effect of a second dose on alcohol preference: two doses, weeks 1 and 3
Text: Twenty-five adult (12-30-week old), male fosTRAP2×Ai14 mice were bred in-house. Generation of the fosTRAP2 and FosTRAP lines were previously described (Guenthner, et al.). fosTRAP2 mice were crossed with Ai14 mice to obtain the mice used in this study. Mice were single-housed on a reverse light-dark cycle and given unlimited access to standard mouse chow and water. Animals were given a week to habituate to single housing, after which they were given free access to 2 bottles containing water and 20% ethanol for 24-hour periods beginning at the start of their dark cycle, 5 days per week (Monday-Friday) for 4 weeks (ethanol exposure). Amount of water and ethanol consumed (by volume and weight) were measured for each mouse across the final 5 days of the ethanol exposure period, and ethanol preference was counterbalanced across treatment group by the mean ethanol preference by weight (corrected for body weight) during this period.
Following 4 weeks of ethanol exposure, animals were administered one of 3 treatments via a single intraperitoneal injection 10 minutes prior to onset of the dark cycle/day one in a five-day cycle of alcohol exposure: saline, LSD 50 ug/kg, or BOL-148 3.0 mg/kg. Following administration of treatment, animals were placed back into their home cages with free access to standard mouse chow and water. After 10 minutes, 12 animals from each treatment group were given free access to 2 bottles containing water and 20% ethanol for 24 hours daily for 4 weeks (alcohol preference). Amount of water and ethanol consumed (by volume and weight) were measured daily at the end of the light cycle. Positions of bottles containing water and 20% ethanol were alternated daily to prevent the formation of place preference. An additional 2-4 animals per treatment group were given free access to standard mouse chow and water, and ambulatory activity as well as head-twitching behavior (thought to correspond with hallucinogenicity of substances in mice), was measured for 35 minutes following treatment.
For all hypotheses, data were analyzed using Mixed Models for Repeated Measures (MMRM), including fixed effects of Treatment (Saline, BOL, LSD), Week (1-4), Day (1-5), and two- and three-way interactions between Treatment and Day/Week. Repeated Effects were represented as a nested within-subjects variable (days within weeks). Data were analyzed separately for each of 3 dependent variables: ethanol consumption (mg and ml consumed), ethanol preference (ethanol consumption/total fluid consumption), and total fluid consumption (mg and ml consumed). For hypothesis 1a, a priori between-group comparisons are performed to contrast ethanol consumption, ethanol preference, and total fluid consumption between the vehicle- and LSD-treated groups. For hypothesis 1b, a priori between-group comparisons are performed to contrast ethanol consumption, ethanol preference, and total fluid consumption between the LSD-treated group at follow-up weeks 1 versus 3. For hypothesis 2a, a priori between-group comparisons are performed to contrast ethanol consumption, ethanol preference, and total fluid consumption between the vehicle- and BOL-148-treated groups. For hypothesis 2b, a priori between-group comparisons are performed to contrast ethanol consumption, ethanol preference, and total fluid consumption between the LSD- and BOL-148-treated groups. For each hypothesis, with 3 groups of 5-10 animals (total n=25) and 20 days of repeated measurements (autocorrelation=0.5), there is power of 0.8 to detect moderately-sized effects of approximately d=0.3 at alpha=0.05.

5HT2A receptors = 5HT2A receptors (Homo sapiens, UniProt P28223); conditions: cited from earlier work
[2] = system: participants with alcoholism; conditions: 1 to 6 DPT sessions; cited from earlier work
[3] = system: participants with alcoholism; conditions: DPT treatment vs conventional treatment; cited from earlier work
rats [4] = conditions: cited from earlier work
human participants = conditions: 0.03 mg/kg delivered daily; cited from earlier work
humans = conditions: cited from earlier work
[5] = in vivo; cited from earlier work
5-HT receptors = conditions: cited from earlier work
rats [6] = conditions: cited from earlier work; remark: listed apart in the source
[7] = LSD 50 ug/kg or BOL-148 3.0 mg/kg IP

Chain of 5HT2A receptors (P28223 whole entry): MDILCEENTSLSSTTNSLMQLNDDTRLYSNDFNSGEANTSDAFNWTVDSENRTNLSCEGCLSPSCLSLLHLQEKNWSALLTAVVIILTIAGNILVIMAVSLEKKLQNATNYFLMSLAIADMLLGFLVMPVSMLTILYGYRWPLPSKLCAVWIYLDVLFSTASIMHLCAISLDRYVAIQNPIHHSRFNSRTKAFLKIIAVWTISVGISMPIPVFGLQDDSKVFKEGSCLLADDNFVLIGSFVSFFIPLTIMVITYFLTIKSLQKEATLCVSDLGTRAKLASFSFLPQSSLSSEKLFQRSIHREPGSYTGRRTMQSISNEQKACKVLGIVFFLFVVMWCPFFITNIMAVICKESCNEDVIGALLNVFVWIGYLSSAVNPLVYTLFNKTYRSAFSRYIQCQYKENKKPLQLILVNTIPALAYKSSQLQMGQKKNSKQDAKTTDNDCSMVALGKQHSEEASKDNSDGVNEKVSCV

## CCN(CC)C(=O)[C@@H]1C=C2c3cccc4[nH]cc(c34)C[C@H]2N(C)C1 [LSD, lysergic acid diethylamide]
C57BL/6J mice; acute administration of 50 ug/kg LSD, C57BL/6J mice
  effect on alcohol consumption and alcohol preference: robust and lasting reduction
C57BL/6J mice; mice, 25 μg/kg LSD
  duration of observation over which reduced ethanol consumption was shown: 46 days
  group mean reduction of ethanol consumption relative to controls: 17.9%
[1]
  odds of improvement at first post-treatment follow-up (OR): 1.96
Dopamine receptors
  activity at dopamine receptors: partial agonist
rodents
  range of doses that reliably produce accurate responding in a discrimination task or head twitch response: 0.17 to 0.2 mg/kg
5HT1A receptors
  activity at 5HT1A receptors: potent agonist
Male fosTRAP2×Ai14 mice; LSD 50 ug/kg versus BOL-148 3.0 mg/kg treated groups
  ethanol preference, mean difference LSD vs. BOL-148: 0.081
Male fosTRAP2×Ai14 mice; [7]
  ethanol preference, within-group mean difference week 1 vs. week 3: 0.014
Male fosTRAP2×Ai14 mice
  ethanol consumption, mean difference Saline vs. treatment: 0.050 mg total ethanol consumed/mg of body weight
  effect of treatment on alcohol preference (summary): becomes apparent immediately, and remains stable for weeks
  additive effect of a second dose on alcohol preference: An additive effect was not found
Male fosTRAP2×Ai14 mice; planned contrast across follow-up, LSD 50 ug/kg or BOL-148 3.0 mg/kg IP
  ethanol preference (ethanol consumption/total fluid consumption), mean difference Saline vs. treatment: 0.168
Male fosTRAP2×Ai14 mice; post-hoc, Week 1 (injection week), LSD 50 ug/kg IP
  ethanol consumption, mean difference Saline vs. LSD, Week 1: 0.062 mg total ethanol consumed/mg of body weight
Male fosTRAP2×Ai14 mice; post-hoc, Week 2 (non-injection week), LSD 50 ug/kg IP
  ethanol consumption, mean difference Saline vs. LSD, Week 2: 0.077 mg total ethanol consumed/mg of body weight
Male fosTRAP2×Ai14 mice; post-hoc, Week 3 (injection week), LSD 50 ug/kg IP
  ethanol consumption, mean difference Saline vs. LSD, Week 3: −0.029 mg total ethanol consumed/mg of body weight
Male fosTRAP2×Ai14 mice; post-hoc, Week 4 (non-injection week), LSD 50 ug/kg IP
  ethanol consumption, mean difference Saline vs. LSD, Week 4: 0.089 mg total ethanol consumed/mg of body weight
5HT2A receptors
  activity at 5HT2A receptors: partial agonist

## CCCN(CCC)CCc1c[nH]c2ccccc12 [DPT, Dipropyltryptamine]
[2]
  clinical outcomes including abstinence at 6 months: highly significant improvement
[3]
  clinical outcomes at 6 month follow-up vs other groups: no significant differences

## CCN(CC)C(=O)[C@@H]1C=C2c3cccc4[nH]c(Br)c(c34)C[C@H]2N(C)C1 [BOL-148, 2-bromo-lysergic acid diethylamide]
Rats [4]
  blockade of the effects of LSD by pre-treatment: will not block the effects of LSD
Human participants
  effect on cluster headaches: effective at reducing cluster headaches
humans
  blockade of the effects of LSD in humans: could block the effects of LSD
[5]
  psychedelic activity: inactive as a psychedelic
Male fosTRAP2×Ai14 mice; [7]
  ethanol preference, within-group mean difference week 1 vs. week 3: 0.119
Male fosTRAP2×Ai14 mice
  ethanol consumption, mean difference Saline vs. treatment: 0.004 mg total ethanol consumed/mg of body weight
  effect of treatment on alcohol preference (summary): modest effect
  additive effect of a second dose on alcohol preference: an additive effect of BOL-148 was found
5HT2A receptors
  activity at 5HT2A receptors: 5HT2A antagonist activity
5-HT receptors
  effect on 5-HT receptors: neutral antagonist

## COc1cc(CC(C)N)c(OC)cc1I (stereo not shown) [DOI, 2,5-dimethoxy-4-iodoamphetamine]
Rats [6]
  effect on alcohol preference: reduce alcohol preference
